In patent US20230218717A1, “Administration of CEBP-Beta Antagonist and Methods of Use” (Sapience Therapeutics, Inc., priority 2020, published 2023):
Blank lines part the entries; values can stand above or below the molecule they belong to. Where no end group is shown, it is not given here.

Experiments:
[1] = system: HL-60 promyelocytic leukemia cells; test: Cytotoxicity in HL-60 cells
Excerpt: (§1) We hypothesized that modifications designed to enhance electrostatic interactions between the peptide and C/EBPβ would increase potency. A panel of 46 rationally-designed peptides probing the molecular packing of non-leucine amino acids of the peptide antagonist with that of the C/EBPβ bZIP domain were synthesized and screened for cytotoxic activity.

[2] = Cytotoxicity in HL-60 cells
Excerpt: as §1

[3] = target: C/EBPβ (plate-bound, competitive ELISA); test: ELISA: 3.6 ng plate-bound C/EBPβ, ATF5 in solution
C/EBPβ (plate-bound, competitive ELISA), sequence (P17676 whole entry): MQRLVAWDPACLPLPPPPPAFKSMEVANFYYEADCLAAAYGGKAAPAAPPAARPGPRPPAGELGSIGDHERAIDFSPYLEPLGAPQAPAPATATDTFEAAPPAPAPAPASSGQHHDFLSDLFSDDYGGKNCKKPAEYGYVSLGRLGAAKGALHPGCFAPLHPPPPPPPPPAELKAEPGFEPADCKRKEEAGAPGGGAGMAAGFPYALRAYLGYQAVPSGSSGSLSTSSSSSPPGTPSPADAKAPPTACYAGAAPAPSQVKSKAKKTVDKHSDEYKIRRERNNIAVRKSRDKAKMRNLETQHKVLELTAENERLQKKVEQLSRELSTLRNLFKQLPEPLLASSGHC

C/EBPβ = C/EBPβ (Homo sapiens, UniProt P17676); test: ELISA, ATF5 binding to plate-bound C/EBPβ; conditions: 3.6 ng C/EBPβ plate-bound
C/EBPβ, sequence (P17676 whole entry, species assumed): as the sequence (P17676 whole entry) above
Protocol: C/EBPβ (3.6 ng/well) was immobilized to a 384-well plate (Nunc MaxiSorp, ThermoSci) by overnight incubation at 4° C. Non-bound protein was removed by three washes with tris-buffered saline (TBS)+0.1% Tween (TBST), and wells were then blocked for 1 hr at 4° C. with 5% bovine serum albumin in TBS.
Plate-bound ATF5 was detected by 1-hr incubations at 4° C. of 1:1000 dilution rabbit-anti-ATF5 antibody (ab60126, Abcam) followed by 1:1000 goat-anti-rabbit IgG-HRP antibody (ab6721, Abcam), with three washes with TBST after each antibody incubation, and 50 μL TMB substrate. The reaction was stopped by addition of 25 μL 2.5M sulfuric acid, and absorbance was detected at 450 nm using a SpectraMax M3 plate reader (Molecular Devices).

Molecule: RQIKIWFQNRRMKWKKLEGRAQGLRAELRELEERAEAV [“winner” peptide]
- increase in potency vs. the parent peptide ([1]; HL-60 cytotoxicity EC50): 3.2 fold
- EC50 [2]: 5.5 ± 0.5 µM

Molecule: 22-amino acid section of native ATF5 bZIP domain, LEGECQGLEARNRELKERAESV, and a 16-amino acid penetratin domain [precursor peptide]
- EC50 [1]: 17.4 ± 0.5 µM

- Kd [3]: 0.001 µM
Molecule: recombinant ATF5

- Kd of ATF5 association with C/EBPβ (C/EBPβ): 0.001 µM
B1: ATF5: recombinant ATF5, activating transcription factor 5, binding partner of C/EBPβ (protein)
chain: MSLLATLGLELDRALLPASGLGWLVDYGKLPPAPAPLAPYEVLGGALEGGLPVGGEPLAGDGFSDWMTERVDFTALLPLEPPLPPGTLPQPSPTPPDLEAMASLLKKELEQMEDFFLDAPPLPPPSPPPLPPPPLPPAPSLPLSLPSFDLPQPPVLDTLDLLAIYCRNEAGQEEVGMPPLPPPQQPPPPSPPQPSRLAPYPHPATTRGDRKQKKRDQNKSAALRYRQRKRAEGEALEGECQGLEARNRELKERAESVEREIQYVKDLLIEVYKARSQRTRSC
